In US20130203715A1, “USE OF TRP CHANNEL AGONISTS TO TREAT INFECTIONS” (Pulmatrix, Inc., priority 2010, published 2013):
Where two headings read alike, the source gives them in different places.

Legend:
[1] = tested on: Influenza A/Panama/2007/99; format: cell-based; conditions: for Effect of TRP channel antagonist on 8×Ca:Na formulation-mediated reduction of influenza infection: Calu-3 cells pretreated with antagonist (RR 1 μM, SKF96365 10 μM, RN1734 1-100 μM), then 8×Ca:Na formulation
[2] = tested on: Influenza A/Panama/2007/99; test: Influenza infection of normal human bronchial epithelial (NHBE) cells, viral titer by TCID50; format: cell-based, Influenza A (H3N2); conditions: for Effect of TRPV4 agonist on influenza replication in NHBE cells: agonist 1 μM one hour prior to infection and reapplied 3 h after, compared to PBS control
rhinovirus (RV16) = format: cell-based, human rhinovirus
parainfluenza (hPIV3) = format: cell-based, human parainfluenza virus
[3] = Calu-3 cells, treatment alone, compared to untreated control
[4] = reduction of influenza infection, TCID50 24 h after infection
[5] = reduction of influenza infection, agonist applied apically 1 h before and again 3 h after infection, titer 24 h after infection
[6] = Calu-3 cells pretreated with ruthenium red 1 μM, then 8×Ca:Na formulation

O=C1NC(c2cccc([N+](=O)[O-])c2)=CCN1c1ccccc1O [Icilin]
Effect on influenza infection (viral titer) of Calu-3 cells [1, 3]: small, but measurable reduction of influenza titer | Max reduction in titer (Log10) [1, 4]: 1 Log10 | Active concentrations [1, 5]: -6 to -4 M

C=C(C)[C@]12C[C@@H](C)[C@@]34O[C@](Cc5ccccc5)(O[C@@H]1[C@@H]3C=C(COC(=O)Cc1ccc(O)c(OC)c1)C[C@]1(O)C(=O)C(C)=C[C@@H]41)O2 [Resiniferatoxin]
Active concentrations [1]: -6 to -4 M | Max reduction in titer (Log10) [1]: 3.3 Log10

CC(C)C[C@H](NC(=O)c1cc2ccccc2s1)C(=O)N1CCN(C(=O)[C@H](CO)NS(=O)(=O)c2ccc(Cl)cc2Cl)CC1 [GSK1016790A]
Effect of TRPV4 agonist on influenza replication in NHBE cells [2]: reduced influenza replication | Active concentrations [1]: -11 to -6 M | Max reduction in titer (Log10) [1]: 5.0 Log10 | Effect on influenza infection (viral titer) of Calu-3 cells [1, 3]: reduces influenza infection in a dose-dependent manner | Effect on influenza infection (viral titer) of Calu-3 cells ([1]; Calu-3 cells, treatment alone, compared to untreated control, listed as GSK10168790): the highest level of anti-viral efficacy in a dose-dependent manner

COc1ccc(CCCOC(Cn2ccnc2)c2ccc(OC)cc2)cc1 (centres unmarked) [SKF96365]
Effect of TRP channel antagonist on 8×Ca:Na formulation-mediated reduction of influenza infection [1]: the effect on viral infection was reduced to levels comparable to the untreated control cells

CCCCCCCCCC(=O)O[C@@H]1[C@@H](C)[C@@]2(O)[C@@H](C=C(CO)C[C@@]3(O)C(=O)C(C)=C[C@@H]23)[C@@H]2C(C)(C)[C@]12OC(=O)CCCCCCCCC [4αPDD, 4α-Phorbol 12,13-didecanoate]
Effect of TRPV4 agonist on influenza replication in NHBE cells [2]: reduced influenza replication | Effect on rhinovirus infection of Calu-3 cells (rhinovirus (RV16); Calu-3 cells, RV16, compared to untreated control): able to reduce | Effect on parainfluenza infection of Calu-3 cells (parainfluenza (hPIV3); Calu-3 cells, hPIV3, compared to untreated control): able to reduce | Active concentrations [1]: -9 to -5 M | Effect on influenza infection (viral titer) of Calu-3 cells [1]: reduces influenza infection | Max reduction in titer (Log10) [1]: 2.9 Log10

O=[N+]([O-])c1cc(Cl)ccc1S(=O)(=O)N1CCN(Cc2ccccc2)CC1 [RN1747]
Active concentrations [1]: -8 to -4 M | Max reduction in titer (Log10) [1]: 2.3 Log10 | Effect on influenza infection (viral titer) of Calu-3 cells [1, 3]: reduces influenza infection in a dose-dependent manner

CC(C)NCCN(C(C)C)S(=O)(=O)c1ccc(Cl)cc1Cl [RN1734]
Effect of TRP channel antagonist on 8×Ca:Na formulation-mediated reduction of influenza infection [1]: inhibited the 8×Ca:Na formulation-mediated reduction of influenza infection in a dose dependent manner

COc1cc(CNC(=O)CCCC/C=C/C(C)C)ccc1O [Capsacin]
Active concentrations [1]: -8 to -4 M | Max reduction in titer (Log10) [1]: 2.2 Log10

O=C(O)c1ccccc1Nc1cccc(C(F)(F)F)c1 [Flufenamic acid]
Effect on influenza infection (viral titer) of Calu-3 cells [1, 3]: reduced influenza titer in a dose responsive manner | Max reduction in titer (Log10) [1, 4]: 2.5 Log10 | Active concentrations [1, 5]: -6 to -4 M

CC1CCC(C(C)C)C(O)C1 (centres unmarked) [Menthol]
Effect on influenza infection (viral titer) of Calu-3 cells [1, 3]: reduced influenza titer in a dose responsive manner | Max reduction in titer (Log10) [1, 4]: 2.5 Log10 | Active concentrations [1, 5]: -7 to -4 M

N.N.N.N.N.N.N.N.N.N.N.N.N.N.[Cl-].[Cl-].[Cl-].[Cl-].[Cl-].[Cl-].[O-2].[O-2].[Ru+3].[Ru+3].[Ru+4] [Ruthenium Red]
Effect of antagonist on 8×Ca:Na formulation anti-viral action in NHBE cells ([2]; ruthenium red 1 μM before 8×Ca:Na formulation): blocked the anti-viral action of the Ca:Na formulation | Effect of antagonist on 8×Ca:Na formulation efficacy against rhinovirus (rhinovirus (RV16); [6]): the efficacy of the 8× treatment was reduced | Effect of antagonist on 8×Ca:Na formulation efficacy against parainfluenza (parainfluenza (hPIV3); [6]): the efficacy of the 8× treatment was reduced | Effect of antagonist on Formulation I reduction of influenza viral titer ([1]; Calu-3 cells pre-treated with ruthenium red 1 μM, then dry powder Formulation I): attenuated | Effect of antagonist on Formulation II reduction of influenza infection ([1]; Calu-3 cells pre-treated with ruthenium red 1 μM, then dry powder Formulation II): attenuated | Effect of TRP channel antagonist on 8×Ca:Na formulation-mediated reduction of influenza infection [1]: the effect on viral infection was reduced to levels comparable to the untreated control cells

Cc1ccc(C(C)C)cc1O [Carvacrol]
Active concentrations [1]: −6.5 to −4M^ | Max reduction in titer (Log10) [1]: 3 Log10 | Effect on influenza infection (viral titer) of Calu-3 cells [1, 3]: reduced influenza titer in a dose responsive manner
